For the data set, the system named is R-28 and ARPE-19 cell line. The conditions noted are these: rat (R-28), human (ARPE-19), 48 h.

Description: The biosafety of DONBs and excipients used in the formulation was evaluated on retinal precursor cells R-28 and retinal pigment epithelial cells (ARPE-19). The suspensions of the following cell line (100 μL, −60,000 cells/mL) were seeded into each well of a 96-well plate and cultured overnight. The cells were cultured for 24 h in the dark.
Excipient toxicity studies on ARPE-19 and R28 cell line. Cell viability was conducted with ARPE-19 and R28 cell lines, in response to treatment with nanobubble excipients, using the [3-(4, 5-dimethylthiazol-2-yl)-2, 5-diphenyl tetrazolium bromide](MTT) assay. The MTT reagent (Cat no. M6494, Thermo Fisher Scientific) was prepared by dissolving 5 mg of MTT per 1 ml of phosphate-buffered saline (Cat no. 21-040-CV, Corning), filter sterilized using a 0.22 μm filter, and stored in dark at 4° C. Yellow MTT is reduced to purple formazan in the mitochondria of living cells. Cells were grown to 80-90% confluence in a T-25 flask, dissociated using trypsin, and seeded into a 96-well plate at a density of 10000 cells per well. […] The absorbance was measured at 590 nm with a reference filter of 620 nm.

For `OC[C@H]1O[C@H](O[C@H]2O[C@H](CO)[C@@H](O)[C@H](O)[C@H]2O)[C@H](O)[C@@H](O)[C@@H]1O` [Trehalose, D-(+)-Trehalose dihydrate], the “excipient concentration producing some toxic effect on cell viability” value was 0.6 to 0.7 mg.

For the origin of these results see US20240024251A1, “POLYSACCHARIDE ENCAPSULATED OXYGEN NANOBUBBLES” (THE BOARD OF TRUSTEES OF THE UNIVERSITY OF ILLINOIS, priority 2020, published 2024).
